This is an account of results in patent US11234960B2, “Compositions and methods for improving mitochondrial function and treating neurodegenerative diseases and cognitive disorders” (Amazentis SA, priority 2010, dated 2022).

SMILES strings stand for the structures.

Common to all, as to type: in vivo
The test system of assay [1] is maternally separated mice. Description: Rotarod motor learning in early-life stress mice. Particulars: early-life stressed mice, 90 mg/kg/day (FIG. 44). The protocol:
(§1) At postnatal day 1, pups were culled to have 6 pups per mother. From postnatal day 1 to 14, unpredictable maternal separation (MS) of a period of 3 hours daily was carried out. Maternal separation was performed at random times (from 8 am to 2 pm) to avoid the habituation of the mother to the procedure. The protocol consisted of removing pups from their mother to another cage at room temperature for a 3 hour period, after which the pups were returned to their original nest. These groups are denoted as early-life stress in the figures. A control group of dam/pups was left undisturbed and is denoted in the figures as normal.
One week after maternal separation mice were separated into two groups. One control group received the standard mouse chow diet (Untreated), while the other group received the ellagitannin punicalagin admixed into the food and designed to deliver a dose of 90 mg/kg/day to the mice. Treatment with the diet began 1 week after the termination of the maternal separation treatment. […]
To measure the effects of pomegranate-derived compounds on the negative cognitive impacts of maternal separation, effects on motor learning were assayed using the rotarod behavioral assay. […] The latency to fall was measured with a cutoff time of 300 sec. […]
On the technique in general: The rotarod test checks motor coordination on a turning rod.

The test system of assay [2] is maternally separated mice. Description: Contextual fear conditioning in early-life stress mice. Particulars: early-life stressed mice. On the procedure: as §1
One week after maternal separation mice were separated into two groups. […]
Contextual fear conditioning was used to determine the effects of the ellagitannin punicalagin on the susceptibility of adult animals, subjected to early life stress, to anxiety. […] Animal behavior was monitored every 2 seconds throughout the duration of the experiment. The period that mice spent immobile in the chamber was considered as “freezing” and was scored throughout these periods. The time the mice spent immobile after the first shock was recorded for a 60 second period and expressed as a percentage. […]

Assay [3] deals with C57BL/6J mice exposed to chronic unpredictable stress. Description: Morris water maze in chronically stressed mice. Particulars: 25 mg/kg/d (FIG. 34). On the procedure:
Three weeks before the initiation of the chronic stress protocol mice were separated into four different groups. One group received standard mouse chow diet (Control), while the remaining three groups received varying doses of extract 1011, an extract derived from pomegranate juice. Low dose corresponded to an extract dose of 21 mg/kg/d of gallic acid equivalents of polyphenols (GAE PPE), the medium dose corresponded to an extract dose of 43 mg/kg/d of GAE PPE, the high dose corresponded to an extract dose of 86 mg/kg/d of GAE PPE (see Table 5).
Three weeks before the initiation of the chronic stress protocol, mice were separated into two groups. […]
The unpredictable chronic stress protocol involved exposing animals to a daily stressful situation at an unpredictable moment for 4 weeks (between 8 am and 4 pm, and randomly distributed over the 28 days). […] All animals were weighed and the state of their coat was evaluated on a regular basis (every 3-5 days). […]
Each trial started by introducing the mouse into the maze with the aid of a cup, facing the pool wall, and at one of four possible positions that were randomly balanced between trials and days. The distance between the mouse and the platform was measured at each sampling time, with 25 sampling times collected per second. […]

Consider `O=C1O[C@H]2[C@@H]3OC(=O)c4cc(O)c(O)c(O)c4-c4c(O)c(O)c5oc(=O)c6c(c(O)c(O)c7oc(=O)c4c5c76)-c4c(cc(O)c(O)c4O)C(=O)OC[C@H]3OC(O)[C@@H]2OC(=O)c2cc(O)c(O)c(O)c2-c2c1cc(O)c(O)c2O` (mixture of isomers) [punicalagin, 2,3 hexahydroxydiphenoyl-4,6-gallagylglucose], for which, in assay [1], the “motor learning, latency to fall from rotarod” value is recorded as “restored motor learning skills”. The “freezing time after the first foot shock (anxiety level)” value in assay [2] (90 mg/kg/day in food, 60 second period (FIG. 42)) is “decreased and normalized these elevated anxiety levels”. Moreover, in assay [2] (90 mg/kg/day, 12 days, reduced freezing between days 8 and 12 (FIG. 43)), the “extinction of contextual recall (freezing as percent of day 1)” value is “faster extinction than untreated early-life stressed mice”.

With `O=c1oc2cc(O)ccc2c2ccc(O)cc12` [urolithin A, 3,8-Dihydroxydibenzo-α-pyrone], in assay [3], the “Morris water maze learning, variability of distance to platform between sequential trials” value is on record as “stabilization of this variability”.
